In one assay the target is C-Raf FL (Homo sapiens (Human), UniProt P04049, Y340E/Y341E). The experiment in a line: In vitro Raf activity determination (Alpha Screen, phospho-MEK), C-Raf FL (full length, Y340E/Y341E). It is filed as biochemical. As to conditions: ATP 1 μM; 60 min pre-incubation; 1 hour reaction; column head does not say FL or TR. The method, boiled down:
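Read-out is AlphaScreen luminescence using rabbit anti-p-MEK with protein A beads after EDTA stop, with IC50 fitted by non-linear regression. Reaction: Sf9-derived C-Raf plus biotinylated E. coli MEK1 K97R substrate, pH 7.5 Tris/MgCl2/DTT buffer, compound preincubated 60 min at room temperature.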

The target in a further assay is b-Raf (V600E) (Homo sapiens (Human), UniProt P15056, V600E). The experiment in a line: In vitro Raf activity determination (Alpha Screen, phospho-MEK), b-Raf (V600E). It counts as biochemical. Particulars: ATP 10 μM, 60 min pre-incubation, 3 hours reaction.
b-Raf (V600E), sequence (P15056 whole entry V600E): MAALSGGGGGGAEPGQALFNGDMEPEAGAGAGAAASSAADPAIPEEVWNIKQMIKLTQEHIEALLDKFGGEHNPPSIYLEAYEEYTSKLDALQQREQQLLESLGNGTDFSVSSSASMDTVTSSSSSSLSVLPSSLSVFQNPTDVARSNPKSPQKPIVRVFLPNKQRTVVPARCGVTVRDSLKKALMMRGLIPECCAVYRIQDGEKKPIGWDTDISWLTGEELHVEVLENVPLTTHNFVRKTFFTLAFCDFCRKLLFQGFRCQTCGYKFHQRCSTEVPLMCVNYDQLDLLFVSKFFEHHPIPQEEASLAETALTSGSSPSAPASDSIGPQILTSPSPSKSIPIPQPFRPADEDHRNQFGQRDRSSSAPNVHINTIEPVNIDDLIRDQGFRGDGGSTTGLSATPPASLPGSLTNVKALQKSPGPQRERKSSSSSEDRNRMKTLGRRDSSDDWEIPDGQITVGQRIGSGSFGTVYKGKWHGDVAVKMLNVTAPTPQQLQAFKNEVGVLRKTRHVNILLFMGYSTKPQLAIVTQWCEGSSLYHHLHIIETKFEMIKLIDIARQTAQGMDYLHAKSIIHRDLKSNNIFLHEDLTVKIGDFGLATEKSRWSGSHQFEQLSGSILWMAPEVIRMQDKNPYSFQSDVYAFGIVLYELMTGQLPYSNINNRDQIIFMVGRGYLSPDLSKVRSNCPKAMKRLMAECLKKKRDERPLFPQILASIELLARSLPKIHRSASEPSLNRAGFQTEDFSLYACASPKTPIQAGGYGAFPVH

Consider 16 compounds from patent US10167279B2 (NOVARTIS AG, priority 2014, dated 2019).

C-Raf FL, sequence (P04049 whole entry Y340E/Y341E): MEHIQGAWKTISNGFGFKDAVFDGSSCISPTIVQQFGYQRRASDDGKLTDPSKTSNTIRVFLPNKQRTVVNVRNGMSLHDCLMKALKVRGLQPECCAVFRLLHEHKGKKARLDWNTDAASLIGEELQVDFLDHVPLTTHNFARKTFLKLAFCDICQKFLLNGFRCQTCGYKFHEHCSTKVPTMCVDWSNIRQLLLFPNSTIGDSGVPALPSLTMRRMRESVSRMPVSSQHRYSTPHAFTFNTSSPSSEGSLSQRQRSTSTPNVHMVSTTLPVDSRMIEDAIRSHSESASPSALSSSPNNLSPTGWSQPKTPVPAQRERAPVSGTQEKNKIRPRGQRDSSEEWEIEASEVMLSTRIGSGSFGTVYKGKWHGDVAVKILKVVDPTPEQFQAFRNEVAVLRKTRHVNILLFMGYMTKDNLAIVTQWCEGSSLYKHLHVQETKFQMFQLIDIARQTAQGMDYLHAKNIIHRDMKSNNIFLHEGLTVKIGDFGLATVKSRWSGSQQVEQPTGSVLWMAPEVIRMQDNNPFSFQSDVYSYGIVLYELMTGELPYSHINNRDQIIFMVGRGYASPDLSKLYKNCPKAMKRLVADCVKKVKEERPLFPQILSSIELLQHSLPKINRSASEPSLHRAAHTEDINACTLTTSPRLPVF
C-Raf FL, sequence (P63104 whole entry partner): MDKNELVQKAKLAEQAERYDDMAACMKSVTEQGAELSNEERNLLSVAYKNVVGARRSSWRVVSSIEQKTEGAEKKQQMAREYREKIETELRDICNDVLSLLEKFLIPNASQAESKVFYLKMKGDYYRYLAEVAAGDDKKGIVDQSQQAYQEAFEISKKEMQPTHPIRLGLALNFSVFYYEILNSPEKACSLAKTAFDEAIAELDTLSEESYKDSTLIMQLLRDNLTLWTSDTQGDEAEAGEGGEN

Consider `CCOc1ncc(-c2cc(NC(=O)c3cc(C(C)(C)N)cc(C(F)(F)F)c3)ccc2C)cc1C1(O)COC1` [Example 120, 3-(2-aminopropan-2-yl)-N-(3-(6-ethoxy-5-(3-hydroxyoxetan-3-yl)pyridin-3-yl)-4-methylphenyl)-5-(trifluoromethyl)benzamide], for which the concentration for half-maximal inhibition (IC50) (in general, the concentration needed to halve the response being measured) on C-Raf FL is 2.2 nM; against b-Raf (V600E), 10 nM.

`COc1ncc(-c2cc(NC(=O)c3cc(C(C)(C)C#N)ccn3)ccc2C)cc1C1(O)COC1` [Example 85, 4-(2-cyanopropan-2-yl)-N-(3-(5-(3-hydroxyoxetan-3-yl)-6-methoxypyridin-3-yl)-4-methylphenyl)picolinamide]: the IC50 against C-Raf FL was found to be 1.17 nM; on b-Raf (V600E), 6.47 nM.

As to `COc1ncc(-c2cc(NC(=O)c3ccnc(C(C)(C)C#N)c3)ccc2C)cc1C1(O)COC1` [Example 72, 2-(2-cyanopropan-2-yl)-N-(3-(5-(3-hydroxyoxetan-3-yl)-6-methoxypyridin-3-yl)-4-methylphenyl)isonicotin-amide], the IC50 against C-Raf FL was found to be 1.04 nM; against b-Raf (V600E), 4.2 nM.

Consider `COc1ncc(-c2cc(NC(=O)c3cc(C(C)(C)C#N)ccn3)cnc2C)cc1C1(F)COC1` [Example 86, 4-(2-cyanopropan-2-yl)-N-(5′-(3-fluorooxetan-3-yl)-6′-methoxy-2-methyl-[3,3′-bipyridin]-5-yl)picolinamide], for which the IC50 was 2.33 nM against C-Raf FL and 14.7 nM against b-Raf (V600E).

As to `CCOc1ncc(-c2cc(NC(=O)c3ccnc(C(C)(C)C#N)c3)ccc2C)cc1C1(O)COC1` [Example 121, 2-(2-cyanopropan-2-yl)-N-(3-(6-ethoxy-5-(3-hydroxyoxetan-3-yl)pyridin-3-yl)-4-methylphenyl)isonicotin-amide], the IC50 amounted to 0.975 nM against C-Raf FL and 4.93 nM at b-Raf (V600E).

`COc1ncc(-c2cc(NC(=O)c3cc(C(C)(C)N)cc(C(F)(F)F)c3)cnc2C)cc1C1(C#N)COC1` [Example 114, 3-(2-aminopropan-2-yl)-N-(5′-(3-cyanooxetan-3-yl)-6′-methoxy-2-methyl-[3,3′-bipyridin]-5-yl)-5-(trifluoromethyl)benzamide]: the IC50 against C-Raf FL stood at 3.26 nM; against b-Raf (V600E), 17.5 nM.

On to `CCOc1ncc(-c2cc(NC(=O)c3ccnc(C(C)(C)C#N)c3)cnc2C)cc1C1(C)COC1` [Example 64, 2-(2-cyanopropan-2-yl)-N-(6′-ethoxy-2-methyl-5′-(3-methyloxetan-3-yl)-[3,3′-bipyridin]-5-yl)isonicotinamide], for which the IC50 against C-Raf FL was found to be 1.18 nM; against b-Raf (V600E) it was 7.12 nM.

Turning to `COc1ncc(-c2cc(NC(=O)c3cc(C(C)(C)N)cc(C(F)(F)F)c3)ccc2C)cc1C1(O)COC1` [Example 101, 3-(2-aminopropan-2-yl)-N-(3-(5-(3-hydroxyoxetan-3-yl)-6-methoxypyridin-3-yl)-4-methylphenyl)-5-(trifluoromethyl)benzamide], the IC50 stood at 1.45 nM at C-Raf FL and 6.39 nM against b-Raf (V600E).

As for `COc1ncc(-c2cc(NC(=O)c3ccnc(C(F)(F)F)c3)cnc2C)cc1C1(O)COC1` [Example 75, N-(5′-(3-hydroxyoxetan-3-yl)-6′-methoxy-2-methyl-[3,3′-bipyridin]-5-yl)-2-(trifluoromethyl)isonicotin-amide], the half-maximal inhibitory concentration (IC50) against C-Raf FL turned out to be 6.36 nM; against b-Raf (V600E) it was 76.6 nM.

As to `Cc1ccc(NC(=O)c2ccnc(C(C)(C)F)c2)cc1-c1cc(C2COC2)c(=O)n(C)c1` [Example 110, 2-(2-fluoropropan-2-yl)-N-(4-methyl-3-(1-methyl-5-(oxetan-3-yl)-6-oxo-1,6-dihydropyridin-3-yl)phenyl)isonicotinamide], the IC50 on C-Raf FL came out at 1.52 nM; against b-Raf (V600E), 9.98 nM.

As to `Cc1ccc(NC(=O)c2cccc(C(F)(F)F)c2)cc1-c1cnc(OC2CCOCC2)c(C2(O)COC2)c1` [Example 119, N-(3-(5-(3-hydroxyoxetan-3-yl)-6-((tetrahydro-2H-pyran-4-yl)oxy)pyridin-3-yl)-4-methylphenyl)-3-(trifluoromethyl)benzamide], the IC50 against C-Raf FL came to 0.176 nM; against b-Raf (V600E), 0.808 nM.

For `COc1ncc(-c2cc(NC(=O)c3ccnc(C(C)(C)F)c3)ccc2C)cc1C1(CF)COC1` [Example 104, N-(3-(5-(3-(fluoromethyl)oxetan-3-yl)-6-methoxypyridin-3-yl)-4-methylphenyl)-2-(2-fluoropropan-2-yl)isonicotinamide], the results for the IC50 on C-Raf FL and on b-Raf (V600E) were 0.128 nM and 0.417 nM, respectively.

In the case of `COc1ncc(-c2cc(NC(=O)c3ccnc(C(F)F)c3)ccc2C)cc1C1(O)COC1` [Example 98, 2-(difluoromethyl)-N-(3-(5-(3-hydroxyoxetan-3-yl)-6-methoxypyridin-3-yl)-4-methylphenyl)isonicotin-amide], the IC50 at C-Raf FL is 1.11 nM; against b-Raf (V600E) it was 13.1 nM.

With `COc1ncc(-c2cc(NC(=O)c3cccc(C(F)(F)F)c3)cnc2C)cc1C1(CF)COC1` [Example 49, N-(5′-(3-(fluoromethyl)oxetan-3-yl)-6′-methoxy-2-methyl-[3,3′-bipyridin]-5-yl)-3-(trifluoromethyl)benzamide], the results for the IC50 against C-Raf FL and against b-Raf (V600E) were 0.118 nM and 0.469 nM, respectively.

For the compound `COc1ncc(-c2cc(NC(=O)c3cc(C(C)(C)C#N)ccn3)ccc2C)cc1C1(F)COC1` [Example 87], the half-inhibitory concentration (IC50) on C-Raf FL is 0.622 nM; against b-Raf (V600E), 3.56 nM.

Regarding `Cc1ncc(NC(=O)c2cccc(C(F)(F)F)c2)cc1-c1cccc(C2(C)COC2)c1` [Example 24], the IC50 against C-Raf FL turned out to be 0.455 nM; on b-Raf (V600E) it was 3.52 nM.
